We go through 27 compounds from patent US8685963B2, “Compounds that inhibit NFκB and BACE1 activity” (The Trustees of Columbia University in the city of New York, priority 2008, dated 2014).

“Also recorded” adds a separate entry of the source.

One experiment has as its target T1, BACE1 (Homo sapiens, UniProt P56817).
T1 construct: GFP; expressed in transfected cells; host or cells: SY5Y cells (SY5Y-BACEGFP-SEAPAPPwt), stably transfected
Description: cell-based BACE1 assay (sAPPβ modified ELISA) in SY5Y-BACEGFP-SEAPAPPwt cells. Particulars: for IC50: 8-point dose-response (30-0.01 μM). Here is the method:
FIG. 8 depicts a sAPPβ assay utilized to identify inhibitors of BACE1. The assay utilizes SY5Y cells stably overexpressing BACE-GFP and SEAP-APPwt. Cells are incubated with a candidate compound for 6 hours prior to harvesting media. BACE1-mediated cleavage of APP results in the release of sAPPβ into the media. α-secretase, a competing enzyme that is non-amyloidogenic, also cleaves APP to release […]. Using an sAPPβ-specific antibody (sβwt), SEAP-sAPPβ is specifically captured in a modified ELISA assay. Detection is achieved by addition of the fluorescent alkaline phosphatase substrate, 4-methylumbelliferyl phosphate (4-MUP).
FIG. 10A-B depicts SAR studies of N-(quinolin-8-yl)benzenesulfonamides. 28 full and partial hits, shown in (A) for compounds 1-26 and (B) for compounds 27 and 28, from the targeted screen of N-(quinolin-8-yl)benzenesulfonamides were characterized in SY5Y-BACEGFP-SEAPAPPwt cells using the cell-based BACE1 assay. All compounds were tested at 8 concentrations (30, 10, 3, 1, 0.3, 0.1, 0.03, and 0.01 μM), and data points were analyzed with Origin software and fitted using a logistic model for IC50 determination.
A cell-based modified ELISA assay for measuring sAPPβ, the secreted ectodomain of β-amyloid precursor protein (APP) following […] (BACE1) cleavage, was used to identify a class of compounds that interfered with the first step of sAPPβ generation. This assay has been described in International Application PCT/US2007/015938 (Published as International Publication No. WO 08/008,463), which is herein incorporated in its entirety for all purposes.
The SY5Y-BACEGFP-SEAPAPPwt cell based assay was developed to discover novel small molecule modulators of BACE1 activity. SY5Y cells were stably transfected with GFP-tagged BACE1 (BACE-GFP) and secreted alkaline phosphatase (SEAP)-tagged wildtype APP (SEAP-APPwt). BACE1 cleavage of SEAP-APPwt results in secretion into the media of SEAP-tagged sAPPβ, which is collected and specifically captured using an sAPPβ cleavage site-specific antibody (sβwt). After washing, the fluorescent alkaline phosphatase substrate 4-methylumbelliferyl phosphate (4-MUP) is used to detect the captured SEAP-sAPPβ (FIG. 8).
176 compounds were tested in the primary screen (FIG. 9). Briefly, each compound (10 mM stock in DMSO) was diluted 1:25 in DMSO and loaded onto 96-well plates to generate a 400 μM stock plate. 1 μl of each compound was then diluted 1:200 with cell culture media (0.5% DMSO concentration) in two separate 96-well plates for a final screening concentration of 2 μM. 150 μl of media containing compound was then transferred onto SY5Y-BACEGFP-SEAPAPPwt cells in 96-well format, and the BACE1 assay was performed as described previously. The primary screen was conducted in duplicate. A parallel screen was conducted at 10 μM concentration, also in duplicate. […] Percent inhibition of the fluorescence signal was calculated as 100×[DMSO control−compound]/DMSO control The majority of data points were clustered between −25% and 25% inhibition of sAPPβ fluorescence signal (FIG. 9A). The Z′ factors for all 4 96-well plates used in the primary screen were above 0.7 (data not shown). The threshold for hit selection was set at 3 standard deviations, or 59.76% inhibition, yielding 6 small molecule hits and a hit rate of 3.41% (FIG. 9B).
28 full and partial hits were characterized in 8-point dose-response experiments for IC50 determination in SY5Y-BACEGFP-SEAPAPPwt cells (FIG. 10).

In a further experiment the test system is Aβ40. In words: Aβ40 / sAPPβ levels in Lenti-APPsw infected primary cortical neurons. In kind it is cell-based, mouse. How it is done: FIG. 11A-B depicts Lentiviral-mediated transduction of APPsw in primary neurons. Primary cortical neurons were harvested from wild-type P0 mice and cultured according to established protocols. Lentivirus harboring human Swedish mutant APP (Lenti-APPsw) was packaged using ViraPower Lentiviral Packaging mix (Invitrogen) according to the manufacturer's protocol. DIV-14 neurons were incubated for 24 hours with primary culture media containing the indicated volume (in μl) of virus (LV-1 and LV-2 denote 2 separate batches of virus, 0 denotes no virus was used). After infection, neurons were incubated for 72 hours with primary culture media. Media was collected for Aβ40 ELISA (Bio Source), and cell lysates were probed with APPCT antibody to visualize transduced full-length APP. (A) Bar graph depicting results; (B) Assay results.
FIG. 13A-B depicts the effect of CU-264 on Aβ expressing primary cortical neuron cultures from wild-type mice transformed with lentivirus harboring APPsw. […] At 10 μm, CU-264 increased Aβ levels. (A) Bar graph depicting results; (B) Assay results.
The previously described hit was further analyzed in physiologically relevant systems, e.g. primary neurons and Alzheimer's model mice. Two complementary neuronal cell systems were employed to test the effects of candidate compounds on various aspects of APP processing: cultured mouse cortical neurons (postnatal day 0) infected with recombinant lentivirus carrying human APPsw (Lenti-APPsw; FIG. 11); and cultured cortical neurons prepared from Tg2576 mice (carrying human APPsw transgene under the control of the PrP promoter). Lenti-APPsw infected cortical neurons can be prepared in a relatively large scale, but suffer from variability in lentiviral infection efficiency, resulting in variable levels of APP expression. In contrast, cortical neurons derived from Tg2576 provide constant APP expression. However, neuronal yield is generally much lower, since only half the pups will contain the transgene when heterozygote crossbreeds were conducted. Therefore, Initial characterization experiments were performed using cortical neurons infected with Lenti-APPsw.
Lenti-APPsw infected primary cortical neurons were used for the initial round of physiological experiments. Primary cortical neurons were harvested from wild-type P0 pups using established protocols.
The Lenti-APPsw vector was co-transfected into HEK293 T cells with ViraPower packaging mix (Invitrogen) to generate the lentivirus. Lentiviral-mediated transduction of APPsw in primary neurons was performed by adding neuron primary culture media containing the lentiviral particles to wild-type DIV-14 primary neurons (FIG. 11). After 24 hours, neurons were incubated with media for 72 hours prior to collecting for Aβ40 measurement. Two batches of virus (LV-1 and LV-2) were tested, showing that there is batch-to-batch variation in the viral titer.
Using this experimental paradigm, CU-264 was tested at 10 and 2 μM concentrations to examine the sAPPβ- and Aβ-lowering activity of the compound. The protocol was modified slightly to allow for 24-hour compound treatment. DIV-14 wild-type primary neurons (FIG. 12) cultured on 6-well plates were incubated for 24 hours with primary culture media containing lentiviral particles. After infection, fresh media was mixed in a 1:1 ratio with conditioned media collected prior to lentiviral infection, and applied to the cells for 48 hours to allow for APP expression. […]

T1 sequence (P56817 46-501): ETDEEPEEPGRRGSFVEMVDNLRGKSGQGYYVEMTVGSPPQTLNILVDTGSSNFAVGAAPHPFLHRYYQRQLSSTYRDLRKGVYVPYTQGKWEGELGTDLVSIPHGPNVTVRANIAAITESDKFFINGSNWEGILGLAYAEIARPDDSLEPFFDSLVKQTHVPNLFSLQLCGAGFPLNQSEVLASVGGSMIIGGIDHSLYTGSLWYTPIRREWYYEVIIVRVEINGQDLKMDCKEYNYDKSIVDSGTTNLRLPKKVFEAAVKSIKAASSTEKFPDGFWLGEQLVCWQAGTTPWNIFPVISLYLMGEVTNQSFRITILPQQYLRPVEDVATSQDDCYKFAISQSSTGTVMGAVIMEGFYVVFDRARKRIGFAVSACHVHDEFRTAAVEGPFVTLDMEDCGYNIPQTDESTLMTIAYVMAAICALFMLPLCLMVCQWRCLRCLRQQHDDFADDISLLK

The term IC50 denotes the point on the concentration scale where inhibition reaches its midpoint. Lower therefore signals greater potency. The compound `O=S(=O)(Nc1cccc2cccnc12)c1cccc2ccccc12` [CU-131] returned an IC50 against BACE1 of 6.46 µM.
On the same count and under the same terms, next, `O=S(=O)(Nc1cc(Br)cc2cccnc12)c1cccc2ccccc12` [CU-138]: 9.51 µM; `O=S(=O)(Nc1cccc2cccnc12)c1cccs1` [CU-150]: 8.03 µM; `COc1ccc(S(=O)(=O)Nc2cccc3cccnc23)cc1` [CU-151]: 5.92 µM.
Still for that read-out and setting: next, `O=[N+]([O-])c1ccc(S(=O)(=O)Nc2cccc3cccnc23)cc1` [CU-152]: 4.63 µM.
Compound `O=[N+]([O-])c1ccccc1S(=O)(=O)Nc1cccc2cccnc12` [CU-153] yielded an IC50 against BACE1 of 1.58 µM. This IC50 lies about 2.9-fold lower than the previous one.
Still for that read-out and setting: then `O=S(=O)(Nc1cccc2cccnc12)c1ccc2ccccc2c1` [CU-155], with 2.2 µM; and `O=S(=O)(Nc1cccc2cccnc12)c1cccc2cccnc12` [CU-156], with 4.23 µM; and `O=S(=O)(Nc1cc(Br)cc2cccnc12)c1ccccc1` [CU-166], with 13.4 µM.
The same measure, in the same setting: next, `Cc1ccc(S(=O)(=O)Nc2cc(Br)cc3cccnc23)cc1` [CU-167]: 1.09 µM; `O=S(=O)(Nc1cc(Br)cc2cccnc12)c1cccc2cccnc12` [CU-168]: 17.2 µM; `Cc1ccc(S(=O)(=O)Nc2cccc3ccc(C)nc23)cc1` [CU-225]: 3.79 µM.
Still for that read-out and setting: next, `Nc1ccccc1S(=O)(=O)Nc1cccc2cccnc12` [CU-242]: 3.82 µM; `COc1ccc(S(=O)(=O)Nc2cccc3cccnc23)c([N+](=O)[O-])c1` [CU-261]: 1.92 µM.
Consider `O=S1(=O)Nc2c(ccc3cccnc23)-c2cc(C(F)(F)F)ccc21` [CU-262], for which, at BACE1, the “potency for sAPPβ reduction (in words)” value is listed as “sub-micromolar” and the IC50 was 0.82 µM.
As for `Nc1cc(C(F)(F)F)ccc1S(=O)(=O)Nc1cccc2cccnc12` [CU-264], at BACE1, the “potency for sAPPβ reduction (in words)” value is reported as “most potent analog; also recorded: sub-micromolar; also recorded: most potent compound” and the IC50 was found to be 0.53 µM. Moreover, in the experiment with Aβ40, the “Aβ40 levels in more physiological assay” value is on record as “raising” and the “sAPPβ levels in more physiological assay” value was “raising”. Further, the “Aβ40 levels in primary neurons” value in the experiment with Aβ40 (2 μM CU-264, 24-hour treatment) is recorded as “does not reduce”. In addition, in the experiment with Aβ40 (10 μM, 24-hour treatment), the “Aβ levels in primary neurons” value is recorded as “increased”. Besides, the “Aβ40 in primary neurons” value in the experiment with Aβ40 (tested at 10 and 2 μM, 24-hour treatment) is on record as “did not reduce”.
With `O=[N+]([O-])c1cc(C(F)(F)F)ccc1S(=O)(=O)Nc1cccc2cccnc12` [CU-265], the IC50 on BACE1 came out at 2.95 µM. In other words, the single-digit micromolar range.
The same measure, in the same setting: then `COc1cc(NS(=O)(=O)c2ccccc2[N+](=O)[O-])c2ncccc2c1` [CU-268], with 8.11 µM; and `COc1ccc(S(=O)(=O)Nc2cccc3cccnc23)c(N)c1` [CU-271], with 2.74 µM; and `Cc1ccc2cccc(NS(=O)(=O)c3ccccc3[N+](=O)[O-])c2n1` [CU-273], with 12.4 µM.
Same read-out and setting: then `Cc1ccc2cccc(NS(=O)(=O)c3ccccc3N)c2n1` [CU-274], with 11.1 µM; and `COc1ccc(S(=O)(=O)Nc2cccc3ccc(C)nc23)c(N)c1` [CU-278], with 11.5 µM.
For `Cc1ccc2cccc(NS(=O)(=O)c3ccc(C(F)(F)F)cc3[N+](=O)[O-])c2n1` [CU-280], at BACE1, 5.51 µM corresponded to half-maximal inhibition (IC50). This IC50 lies about 2.1-fold lower than the previous one.
Same read-out and setting: then `Cc1ccc2cccc(NS(=O)(=O)c3ccc(C(F)(F)F)cc3N)c2n1` [CU-281], with 3.28 µM; and `Cc1ccc2ccc3c(c2n1)NS(=O)(=O)c1ccc(C(F)(F)F)cc1-3` [CU-282], with 1.11 µM; and `COc1cc(NS(=O)(=O)c2ccc3ccccc3c2)c2ncccc2c1` [CU-294], with 3.75 µM.
For `COc1cc(NS(=O)(=O)c2cccc3ccccc23)c2ncccc2c1` [CU-295], at BACE1, 3.63 µM corresponded to half-maximal inhibition (IC50).
